Results from ChEMBL document CHEMBL5303573, “Mapping human microbiome drug metabolism by gut bacteria and their genes” (Nature, 2019).
Non-standard residues stand in square brackets, D forms with d. Residues, ends and D or L forms follow the SMILES beside them. pGlu = O=C1CC[C@@H](C(=O)O)N1; Thz = O=C(O)[C@@H]1CSCN1

Key:
[1] = The drug is tested on Bacteroides fragilis strain: HMW615 for biotransformation. The drug concentrations were measured before and after a 12-h incubation by liquid-chromatography-coupled mass spectrometry (LC–MS); conditions: 2 µM
[2] = The drug is tested on Odoribacter splanchnicus strain: fecal isolate for biotransformation. The drug concentrations were measured before and after a 12-h incubation by liquid-chromatography-coupled mass spectrometry (LC–MS); conditions: 2 µM
[3] = The drug is tested on Anaerococcus hydrogenalis strain: DSM7454 for biotransformation. The drug concentrations were measured before and after a 12-h incubation by liquid-chromatography-coupled mass spectrometry (LC–MS); conditions: 2 µM
[4] = The drug is tested on Clostridium asparagiforme strain: DSM15981 for biotransformation. The drug concentrations were measured before and after a 12-h incubation by liquid-chromatography-coupled mass spectrometry (LC–MS); assay type: ADME; design: dose 2 uM, timepoint 0 vs 12 hours; conditions: enterocloster asparagiformis, 2 µM
[5] = The drug is tested on Clostridium sp. strain: fecal isolate for biotransformation. The drug concentrations were measured before and after a 12-h incubation by liquid-chromatography-coupled mass spectrometry (LC–MS); conditions: 2 µM
[6] = The drug is tested on Clostridium scindens strain: ATCC35704 for biotransformation. The drug concentrations were measured before and after a 12-h incubation by liquid-chromatography-coupled mass spectrometry (LC–MS); conditions: 2 µM
[7] = The drug is tested on Coprococcus comes strain: ATCC27758 for biotransformation. The drug concentrations were measured before and after a 12-h incubation by liquid-chromatography-coupled mass spectrometry (LC–MS); assay type: ADME; design: dose 2 uM, timepoint 0 vs 12 hours; conditions: 2 µM
[8] = The drug is tested on Enterococcus faecalis strain: V583 for biotransformation. The drug concentrations were measured before and after a 12-h incubation by liquid-chromatography-coupled mass spectrometry (LC–MS); conditions: 2 µM
[9] = The drug is tested on Ruminococcus gnavus strain: ATCC29149 for biotransformation. The drug concentrations were measured before and after a 12-h incubation by liquid-chromatography-coupled mass spectrometry (LC–MS); conditions: mediterraneibacter gnavus, 2 µM
[10] = The drug is tested on Enterobacter cancerogenus strain: ATCC35316 for biotransformation. The drug concentrations were measured before and after a 12-h incubation by liquid-chromatography-coupled mass spectrometry (LC–MS); conditions: 2 µM
[11] = bacteroides fragilis, 12 h, 2 µM
Description: The drug is tested on Bacteroides fragilis strain: NCTC 9343 for biotransformation. The drug concentrations were measured before and after a 12-h incubation by liquid-chromatography-coupled mass spectrometry (LC–MS)

[12] = segatella copri, 12 h, 2 µM
Description: The drug is tested on Prevotella copri strain: DSM18205 for biotransformation. The drug concentrations were measured before and after a 12-h incubation by liquid-chromatography-coupled mass spectrometry (LC–MS)

[13] = enterocloster bolteae, 12 h, 2 µM
Description: The drug is tested on Clostridium bolteae strain: ATCCBAA-613 for biotransformation. The drug concentrations were measured before and after a 12-h incubation by liquid-chromatography-coupled mass spectrometry (LC–MS)

[14] = limosilactobacillus reuteri cf48-3a, 12 h, 2 µM
Description: The drug is tested on Lactobacillus reuteri CF48-3A strain: BEI HM-102 for biotransformation. The drug concentrations were measured before and after a 12-h incubation by liquid-chromatography-coupled mass spectrometry (LC–MS)

[15] = The drug is tested on Collinsella aerofaciens strain: ATCC25986 for biotransformation. The drug concentrations were measured before and after a 12-h incubation by liquid-chromatography-coupled mass spectrometry (LC–MS); conditions: 2 µM
[16] = The drug is tested on Parabacteroides merdae strain: ATCC43184 for biotransformation. The drug concentrations were measured before and after a 12-h incubation by liquid-chromatography-coupled mass spectrometry (LC–MS); conditions: 2 µM
[17] = The drug is tested on Providencia stuartii strain: ATCC25827 for biotransformation. The drug concentrations were measured before and after a 12-h incubation by liquid-chromatography-coupled mass spectrometry (LC–MS); conditions: 2 µM
[18] = parabacteroides distasonis, 12 h, 2 µM
Description: The drug is tested on Parabacteroides distasonis strain: ATCC8503 for biotransformation. The drug concentrations were measured before and after a 12-h incubation by liquid-chromatography-coupled mass spectrometry (LC–MS)

[19] = The drug is tested on Eubacterium hallii strain: DSM3353 for biotransformation. The drug concentrations were measured before and after a 12-h incubation by liquid-chromatography-coupled mass spectrometry (LC–MS); conditions: anaerobutyricum hallii, 2 µM

Bacterial Biotransformation [1]	Bacterial Biotransformation [2]	Bacterial Biotransformation [3]	Bacterial Biotransformation [4]	Bacterial Biotransformation [5]	Bacterial Biotransformation [6]	Bacterial Biotransformation [7]	Bacterial Biotransformation [8]	Bacterial Biotransformation [9]	Bacterial Biotransformation [10]	Bacterial Biotransformation [11]	Bacterial Biotransformation [12]	Bacterial Biotransformation [13]	Bacterial Biotransformation [14]	Bacterial Biotransformation [15]	Bacterial Biotransformation [18]	Bacterial Biotransformation [19]	Structure (SMILES)	Bacterial Biotransformation [16]	Bacterial Biotransformation [17]
Compound metabolized	Compound metabolized	Compound NOT metabolized	Compound NOT metabolized	Compound metabolized	Compound NOT metabolized	Compound NOT metabolized	Compound NOT metabolized	Compound NOT metabolized	Compound NOT metabolized	Compound metabolized	Compound NOT metabolized	Compound NOT metabolized	Compound NOT metabolized	–	–	–	CC(=O)OCC(=O)[C@@]1(O)[C@@H](C)C[C@H]2[C@@H]3CCC4=CC(=O)C=C[C@]4(C)[C@@]3(F)[C@@H](O)C[C@@]21C [BETAMETHASONE ACETATE]	–	–
Compound NOT metabolized	Compound NOT metabolized	Compound NOT metabolized	Compound NOT metabolized	Compound NOT metabolized	Compound NOT metabolized	Compound NOT metabolized	–	Compound NOT metabolized	Compound NOT metabolized	Compound NOT metabolized	Compound NOT metabolized	Compound NOT metabolized	Compound NOT metabolized	Compound NOT metabolized	Compound NOT metabolized	Compound NOT metabolized	O=C([O-])C[C@H](O)C[C@H](O)/C=C/c1c(C2CC2)nc2ccccc2c1-c1ccc(F)cc1.O=C([O-])C[C@H](O)C[C@H](O)/C=C/c1c(C2CC2)nc2ccccc2c1-c1ccc(F)cc1.[Ca+2] [PITAVASTATIN CALCIUM]	Compound NOT metabolized	–
Compound metabolized	Compound NOT metabolized	Compound NOT metabolized	Compound NOT metabolized	Compound metabolized	Compound NOT metabolized	Compound NOT metabolized	Compound NOT metabolized	Compound NOT metabolized	Compound NOT metabolized	Compound metabolized	Compound metabolized	Compound NOT metabolized	–	Compound NOT metabolized	Compound metabolized	Compound NOT metabolized	O=C1CC[C@@H](C(=O)N2CSC[C@H]2C(=O)O)N1 [PIDOTIMOD] ([pGlu]-[Thz]-OH)	–	Compound NOT metabolized

Structure (SMILES)	Bacterial Biotransformation [1]	Bacterial Biotransformation [2]	Bacterial Biotransformation [3]	Bacterial Biotransformation [4]	Bacterial Biotransformation [5]	Bacterial Biotransformation [6]	Bacterial Biotransformation [7]	Bacterial Biotransformation [8]	Bacterial Biotransformation [9]	Bacterial Biotransformation [10]	Bacterial Biotransformation [11]	Bacterial Biotransformation [12]	Bacterial Biotransformation [13]	Bacterial Biotransformation [14]	Bacterial Biotransformation [15]	Bacterial Biotransformation [18]	Bacterial Biotransformation [19]	Bacterial Biotransformation [16]	Bacterial Biotransformation [17]
CS(=O)(=O)O.O.O.O.O=C1Cc2cc(CCN3CCN(c4nsc5ccccc45)CC3)c(Cl)cc2N1 [ZIPRASIDONE MESYLATE]	Compound NOT metabolized	–	Compound NOT metabolized	Compound NOT metabolized	Compound NOT metabolized	Compound NOT metabolized	Compound NOT metabolized	Compound NOT metabolized	Compound NOT metabolized	Compound NOT metabolized	Compound NOT metabolized	Compound NOT metabolized	Compound NOT metabolized	Compound NOT metabolized	Compound NOT metabolized	Compound metabolized	–	Compound NOT metabolized	Compound NOT metabolized
